# Data published in patent US8633218B2, “8-azabicyclo[3.2.1]oct-2-ene derivatives and their use as monoamine neurotransmitter re-uptake inhibitors” (Aniona APS, priority 2008, dated 2014).
# Counter-ions that a name gives are not always drawn.
# Key:
# Format in all cases: biochemical
# [1] = tested on: dopamine (DA) reuptake in synaptosomes; assay: Inhibition of 3H-DA reuptake in synaptosomes; conditions: read-out: DA-uptake IC50
# Description: (§1) Compounds were tested for their ability to inhibit the reuptake of the monoamine neurotransmitters dopamine (DA) noradrenaline (NA) and serotonine (5-HT) in synaptosomes as described in WO 97/16451 (NeuroSearch A/S).
# (§2) The test values are given as IC50 (the concentration (μM) of the test substance which inhibits the specific binding of ^3H-DA, ^3H-NA, or ^3H-5-HT by 50%).
# [2] = tested on: noradrenaline (NA) reuptake in synaptosomes; assay: Inhibition of 3H-NA reuptake in synaptosomes; conditions: read-out: NA-uptake IC50
# Description: as §1, §2
# [3] = tested on: serotonine (5-HT) reuptake in synaptosomes; assay: Inhibition of 3H-5-HT reuptake in synaptosomes; conditions: read-out: 5-HT-uptake IC50
# Description: as §1, §2
SMILES,IC50 [1],IC50 [2],IC50 [3]
"COc1ccc2sc(C3=CC4CCC(C3)N4)cc2c1 (stereo not drawn) [Compound 2.1, 3-(5-Methoxy-benzo[b]thiophen-2-yl)-8-aza-bicyclo[3.2.1]oct-2-ene hydrochloric acid salt]",740 nM,57 nM,2.5 nM
"Oc1ccc2sc(C3=CC4CCC(C3)N4)cc2c1 (stereo not drawn) [Compound 3.1, 2-(8-Aza-bicyclo[3.2.1]oct-2-en-3-yl)-benzo[b]thiophen-5-ol hydrochloric acid salt]",94 nM,4.3 nM,0.37 nM
